Like-named read-outs stand apart in the source and are kept apart here. Numbered stars: 1 amine (or outer) side, 2 acyl side, 3 side chain; on linkers, the order of the positions; unused ones are H or OH. Square brackets hold non-standard residues; d marks the D form. Side chains are listed from the residue outwards. Peptide text beside a SMILES is read from it. * marks the point of attachment. Biotin = O=C1N[C@H]2[C@H](CS[C@H]2CCCCC(=O)*)N1; C18 diacid = O=C(O)CCCCCCCCCCCCCCCCC(=O)*; γGlu = O=C(O)[C@H](CCC(=O)[*:2])N[*:1]; AEEA = NCCOCCOCC(=O)O; Aib = CC(C)(N)C(=O)O
Assays:
[1] = target: T1, human GLP-1R (Homo sapiens, UniProt P43220); assay: cAMP assay (HitHunter cAMP) in GLP-1R-expressing CHO-K1 cells (GLP-1R+ cells); type: cell-based
T1 construct: host or cells: CHO-K1
T1 sequence (P43220 24-463): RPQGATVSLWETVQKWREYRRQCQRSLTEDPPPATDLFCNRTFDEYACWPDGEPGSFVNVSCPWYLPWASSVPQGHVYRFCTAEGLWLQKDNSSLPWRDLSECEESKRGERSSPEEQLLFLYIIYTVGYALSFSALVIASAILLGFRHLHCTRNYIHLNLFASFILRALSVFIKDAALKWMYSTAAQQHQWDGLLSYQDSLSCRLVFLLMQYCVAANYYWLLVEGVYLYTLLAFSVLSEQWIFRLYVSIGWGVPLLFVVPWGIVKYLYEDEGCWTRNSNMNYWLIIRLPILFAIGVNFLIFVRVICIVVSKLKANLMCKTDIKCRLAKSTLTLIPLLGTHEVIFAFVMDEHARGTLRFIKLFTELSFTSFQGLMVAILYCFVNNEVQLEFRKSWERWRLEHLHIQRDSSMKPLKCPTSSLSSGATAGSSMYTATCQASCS
How it was run: (§1)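 Luminescent cAMP read-out: after 30 min peptide stimulation at 37 °C in cAMP assay buffer, receptor-expressing CHO-K1 cells (seeded 7×10^3/well the night before) received antibody and detection reagents for 1 h, then Solution A for 3 h, at room temperature in the dark.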

[2] = target: T2, human GCGR (Homo sapiens, UniProt P47871); assay: cAMP assay (HitHunter cAMP) in GCGR-expressing CHO-K1 cells (GCGR+ cells); type: cell-based
T2 construct: host or cells: CHO-K1
T2 sequence (P47871 26-477): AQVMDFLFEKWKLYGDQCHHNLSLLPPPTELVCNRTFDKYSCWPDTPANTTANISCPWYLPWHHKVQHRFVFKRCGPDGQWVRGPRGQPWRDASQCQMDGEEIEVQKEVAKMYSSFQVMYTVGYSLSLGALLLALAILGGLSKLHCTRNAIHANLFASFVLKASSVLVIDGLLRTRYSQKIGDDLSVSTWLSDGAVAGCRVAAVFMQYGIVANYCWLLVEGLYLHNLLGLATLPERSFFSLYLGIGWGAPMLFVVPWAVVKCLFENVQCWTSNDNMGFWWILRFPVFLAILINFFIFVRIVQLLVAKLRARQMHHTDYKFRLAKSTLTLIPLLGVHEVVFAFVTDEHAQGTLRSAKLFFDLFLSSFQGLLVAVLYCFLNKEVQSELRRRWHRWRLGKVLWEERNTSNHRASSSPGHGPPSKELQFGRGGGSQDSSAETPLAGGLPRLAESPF
How it was run: as §1

[3] = target: T3, human GIPR (Homo sapiens, UniProt P48546); assay: cAMP assay (HitHunter cAMP) in GIPR-expressing CHO-K1 cells (GIPR+ cells); type: cell-based
T3 construct: host or cells: CHO-K1
T3 sequence (P48546 22-466): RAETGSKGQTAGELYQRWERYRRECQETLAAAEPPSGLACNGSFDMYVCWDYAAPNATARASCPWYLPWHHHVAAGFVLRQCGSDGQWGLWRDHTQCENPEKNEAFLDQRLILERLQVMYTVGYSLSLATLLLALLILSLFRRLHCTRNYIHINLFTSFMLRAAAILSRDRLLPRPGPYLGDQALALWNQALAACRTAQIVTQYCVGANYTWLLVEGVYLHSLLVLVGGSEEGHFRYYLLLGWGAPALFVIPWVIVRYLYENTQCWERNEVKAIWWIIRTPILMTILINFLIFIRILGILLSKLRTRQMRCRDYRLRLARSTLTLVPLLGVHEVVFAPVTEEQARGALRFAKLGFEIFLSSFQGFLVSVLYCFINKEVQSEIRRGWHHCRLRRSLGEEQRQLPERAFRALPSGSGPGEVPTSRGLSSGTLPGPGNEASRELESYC
How it was run: as §1

[4] = In vitro enzymatic stability against FaSSIF/P (pancreatin in FaSSIF, pH 6.5); type: in vitro ADME; conditions: simulated gi fluid
Description: (§2) This study was conducted to determine the enzymatic stability of SEQ ID NOs. 77, 86, 87, 89, 90, and 91 after biotinylation in artificial intestinal environment. The test samples were prepared by mixing stock solutions of peptide and pancreatin dissolved in FaSSIF solution (pH 6.5) in a weight ratio of 25:1. The test samples were incubated at 37° C. for 120 min. The sampling from test samples was proceeded at the predetermined time points (10, 30, 60, and 120 min) and stopped by 10% TFA solution.
(§3) Analytical HPLC was performed to determine the remaining amount on an ACQUITY Premier system (Waters, USA) with an ACQUITY CSH C18 column (Waters, USA) at 35° C. using 0.1% TFA in water and acetonitrile. The remaining amount was determined as a percentage of the peak area at the sampling time point relative to the peak area of the initial sample.
(§4) For the stability against FaSSIF/P, the test samples were prepared by mixing stock solutions of peptide and pancreatin dissolved in FaSSIF solution (pH 6.5) in a weight ratio of 19:1. The test samples were incubated at 37° C. for 120 min. The sampling from test samples was proceeded at the predetermined time points (10, 30, 60, and 120 min) and stopped by 10% TFA solution.

[5] = type: in vitro ADME; conditions: pH 7.8
Description: (§5) For the stability against trypsin, the test samples were prepared by mixing stock solutions of peptide and trypsin dissolved in 50 mM PBS (pH 7.8) containing 0.02% PS80 in a weight ratio of 10:1. The test samples were incubated at 37° C. for 180 min. The sampling from test samples was proceeded at the predetermined time points (10, 30, 60, 90, 120, and 180 min) and stopped by 10% TFA solution.
as §3

[6] = tested on: trypsin; type: in vitro ADME
Description: as §5, §3

[7] = Body weight loss in high fat diet (HFD) mice, 2 weeks; type: in vivo; conditions: 20 nmol/kg s.c. Q2D
Description: This study was conducted to confirm the body weight loss effect and select the peptides to be evaluated in high fat diet (HFD) treated mouse, which is widely used as experimental animal model in obesity and diabetes studies. SEQ ID NOs. The peptides were delivered at 0.02% PS80 in PBS and dosing volume was 10 mL/kg. Body weight changes, blood glucose, and food intake were monitored Q2D. Animals were fasted at least 4 hours prior to blood glucose measurement.

[8] = tested on: FaSSIF/P; assay: In vitro enzymatic stability against FaSSIF/P (pancreatin in FaSSIF, pH 6.5); type: in vitro ADME
Description: as §2, §3, §4

[9] = In vivo efficacy in mAMLN (obese and NASH) mice, 4 weeks; conditions: after 4 weeks
[10] = Intestinal absorption / PK after intraduodenal administration of oral formulation in rats, serum LC-MS/MS; conditions: rat, in vivo

SMILES: CSCC[C@H](NC(=O)[C@H](Cc1ccc(O)cc1)NC(=O)[C@H](CC(=O)O)NC(=O)[C@H](CC(C)C)NC(=O)[C@H](CC(C)C)NC(=O)[C@H](CCCCNC(=O)COCCOCCNC(=O)COCCOCCNC(=O)CC[C@H](NC(=O)CCCCCCCCCCCCCCCCC(=O)O)C(=O)O)NC(=O)[C@H](CO)NC(=O)[C@H](Cc1ccc(O)cc1)NC(=O)[C@H](CC(=O)O)NC(=O)[C@H](CO)NC(=O)[C@@H](NC(=O)[C@H](Cc1ccccc1)NC(=O)[C@@H](NC(=O)CNC(=O)[C@H](CCC(N)=O)NC(=O)C(C)(C)NC(=O)[C@@H](N)Cc1ccc(O)cc1)[C@@H](C)O)[C@@H](C)O)C(=O)N[C@@H](CCSC)C(=O)N[C@@H](CCC(N)=O)C(=O)N[C@@H](CCC(N)=O)C(=O)N[C@@H](CC(=O)O)C(=O)N[C@@H](Cc1ccccc1)C(=O)N[C@H](C(=O)N[C@@H](CCC(N)=O)C(=O)N[C@@H](Cc1c[nH]c2ccccc12)C(=O)N[C@@H](CC(C)C)C(=O)N[C@@H](CC(C)C)C(=O)N[C@@H](CCC(=O)O)C(=O)NCC(=O)NCC(=O)N1CCC[C@H]1C(=O)N[C@@H](CO)C(=O)N[C@@H](CO)C(=O)NCC(=O)N[C@@H](C)C(=O)N1CCC[C@H]1C(=O)N1CCC[C@H]1C(=O)N1CCC[C@H]1C(=O)N[C@@H](CO)C(N)=O)C(C)C [compound 100] (H-Y[Aib]QGTFTSDYSK([AEEA-AEEA-γGlu-C18 diacid])LLDYMMQQDFVQWLLEGGPSSGAPPPS-NH2; N-terminus assumed)
- activity on GLP-1R compared to SEQ ID NO. 77, in words ([1]; Example 13): decreased
- Ratio vs. GLP-1R, GLP-1R ([1]; Table 36): 100
- Relative % to native ligand, GLP-1R ([1]; Table 36): 54%
- Ratio vs. GLP-1R, GCGR ([2]; Table 36): 56
- Relative % to native ligand, GCGR ([2]; Table 36): 30%
- activity on GIPR compared to SEQ ID NO. 77, in words ([3]; Example 13): decreased
- Ratio vs. GLP-1R, GIPR ([3]; Table 36): 103
- Relative % to native ligand, GIPR ([3]; Table 36): 55%
- half-life ([4]; pH 6.5, Half-life (min), FaSSIF/P): 45.2 min
- half-life [5]: > 434 min
- stability against trypsin compared with SEQ ID NO. 77, in words [6]: increased half-lives

SMILES: CSCC[C@H](NC(=O)[C@H](Cc1ccc(O)cc1)NC(=O)[C@H](CC(=O)O)NC(=O)[C@H](CC(C)C)NC(=O)[C@H](CC(C)C)NC(=O)[C@H](CCCCNC(=O)COCCOCCNC(=O)COCCOCCNC(=O)CC[C@H](NC(=O)CCCCCCCCCCCCCCCCC(=O)O)C(=O)O)NC(=O)[C@H](CO)NC(=O)[C@H](Cc1ccc(O)cc1)NC(=O)[C@H](CC(=O)O)NC(=O)[C@H](CO)NC(=O)[C@@H](NC(=O)[C@H](Cc1ccccc1)NC(=O)[C@@H](NC(=O)CNC(=O)[C@H](CCC(N)=O)NC(=O)C(C)(C)NC(=O)[C@@H](N)Cc1ccc(O)cc1)[C@@H](C)O)[C@@H](C)O)C(=O)N[C@@H](CCSC)C(=O)N[C@@H](CCC(N)=O)C(=O)N[C@@H](CCCNC(=N)N)C(=O)N[C@@H](CC(=O)O)C(=O)N[C@@H](Cc1ccccc1)C(=O)N[C@H](C(=O)N[C@@H](CCCCNC(=O)CCCC[C@@H]1SC[C@@H]2NC(=O)N[C@@H]21)C(=O)N[C@@H](Cc1c[nH]c2ccccc12)C(=O)N[C@@H](CC(C)C)C(=O)N[C@@H](CC(C)C)C(=O)N[C@@H](CCC(=O)O)C(=O)NCC(=O)NCC(=O)N1CCC[C@H]1C(=O)N[C@@H](CO)C(=O)N[C@@H](CO)C(=O)NCC(=O)N[C@@H](C)C(=O)N1CCC[C@H]1C(=O)N1CCC[C@H]1C(=O)N1CCC[C@H]1C(=O)N[C@@H](CO)C(N)=O)C(C)C [compound 89] (H-Y[Aib]QGTFTSDYSK([AEEA-AEEA-γGlu-C18 diacid])LLDYMMQRDFVK(Biotin)WLLEGGPSSGAPPPS-NH2; N-terminus and C-terminus assumed)
- Ratio vs. GLP-1R, GLP-1R ([1]; Table 31): 100
- Relative % to native ligand, GLP-1R ([1]; Table 31): 38%
- Ratio vs. GLP-1R, GCGR ([2]; Table 31): 117
- Relative % to native ligand, GCGR ([2]; Table 31): 45%
- Ratio vs. GLP-1R, GIPR ([3]; Table 31): 399
- Relative % to native ligand, GIPR ([3]; Table 31): 154%
- body weight loss effect compared to SEQ ID NO. 77, in words [7]: comparable to SEQ ID NO. 77
- half-life ([4]; pH 6.5, Table 33, peptide:pancreatin weight ratio 25:1, FaSSIF pH 6.5, 37° C., read-out: Half-life): 43 min
- intestinal stability in FaSSIF/P compared with SEQ ID NO. 77, in words ([8]; Example 11): not inferior to that of SEQ ID No. 77
- hepatic steatosis (histological score), in words [9]: significantly reduced
- AUC(0-inf) ([10]; rats, single intraduodenal (ID) administration, read-out: AUCinf): 2790 ng·h/mL
- Cmax ([10]; rats, single intraduodenal (ID) administration, read-out: mean Cmax): 332 ng/mL
- half-life ([10]; rats, single intraduodenal (ID) administration, read-out: t1/2 (converted)): 434 min

SMILES: CSCC[C@H](NC(=O)[C@H](Cc1ccc(O)cc1)NC(=O)[C@H](CC(=O)O)NC(=O)[C@H](CC(C)C)NC(=O)[C@H](CC(C)C)NC(=O)[C@H](CCCCNC(=O)COCCOCCNC(=O)COCCOCCNC(=O)CC[C@H](NC(=O)CCCCCCCCCCCCCCCCC(=O)O)C(=O)O)NC(=O)[C@H](CO)NC(=O)[C@H](Cc1ccc(O)cc1)NC(=O)[C@H](CC(=O)O)NC(=O)[C@H](CO)NC(=O)[C@@H](NC(=O)[C@H](Cc1ccccc1)NC(=O)[C@@H](NC(=O)CNC(=O)[C@H](CCC(N)=O)NC(=O)C(C)(C)NC(=O)[C@@H](N)Cc1ccc(O)cc1)[C@@H](C)O)[C@@H](C)O)C(=O)N[C@@H](CCSC)C(=O)N[C@@H](CCC(N)=O)C(=O)N[C@@H](CCCNC(=N)N)C(=O)N[C@@H](CC(=O)O)C(=O)N[C@@H](Cc1ccccc1)C(=O)N[C@H](C(=O)N[C@@H](CCC(N)=O)C(=O)N[C@@H](Cc1c[nH]c2ccccc12)C(=O)N[C@@H](CC(C)C)C(=O)N[C@@H](CC(C)C)C(=O)N[C@@H](CCC(=O)O)C(=O)NCC(=O)NCC(=O)N1CCC[C@H]1C(=O)N[C@@H](CO)C(=O)N[C@@H](CO)C(=O)NCC(=O)N[C@@H](C)C(=O)N1CCC[C@H]1C(=O)N1CCC[C@H]1C(=O)N1CCC[C@H]1C(=O)N[C@@H](CO)C(=O)N[C@@H](CCCCNC(=O)CCCC[C@@H]1SC[C@@H]2NC(=O)N[C@@H]21)C(N)=O)C(C)C [compound 90] (H-Y[Aib]QGTFTSDYSK([AEEA-AEEA-γGlu-C18 diacid])LLDYMMQRDFVQWLLEGGPSSGAPPPSK(Biotin)-NH2; N-terminus and C-terminus assumed)
- Ratio vs. GLP-1R, GLP-1R ([1]; Table 31): 100
- Relative % to native ligand, GLP-1R ([1]; Table 31): 50%
- Ratio vs. GLP-1R, GCGR ([2]; Table 31): 39
- Relative % to native ligand, GCGR ([2]; Table 31): 19%
- Ratio vs. GLP-1R, GIPR ([3]; Table 31): 311
- Relative % to native ligand, GIPR ([3]; Table 31): 154%
- body weight loss effect compared to SEQ ID NO. 77, in words [7]: comparable to SEQ ID NO. 77
- half-life ([4]; pH 6.5, Half-life (min)): 42.1 min
- intestinal stability in FaSSIF/P compared with SEQ ID NO. 77, in words [8]: not inferior to that of SEQ ID No. 77
- AUC(0-inf) [10]: 2490 ng·h/mL
- Cmax [10]: 282 ng/mL
- half-life [10]: 502 min
- time at which Cmax was reached [10]: 0.30 h
